IC50 and GI50 data for 9 compounds are collected here from US12240844B2 (Voronoi, Inc., priority 2019, dated 2025).

One assay concerns the target T1, TTK (Homo sapiens, UniProt P33981).
T1 sequence (P33981 1-857): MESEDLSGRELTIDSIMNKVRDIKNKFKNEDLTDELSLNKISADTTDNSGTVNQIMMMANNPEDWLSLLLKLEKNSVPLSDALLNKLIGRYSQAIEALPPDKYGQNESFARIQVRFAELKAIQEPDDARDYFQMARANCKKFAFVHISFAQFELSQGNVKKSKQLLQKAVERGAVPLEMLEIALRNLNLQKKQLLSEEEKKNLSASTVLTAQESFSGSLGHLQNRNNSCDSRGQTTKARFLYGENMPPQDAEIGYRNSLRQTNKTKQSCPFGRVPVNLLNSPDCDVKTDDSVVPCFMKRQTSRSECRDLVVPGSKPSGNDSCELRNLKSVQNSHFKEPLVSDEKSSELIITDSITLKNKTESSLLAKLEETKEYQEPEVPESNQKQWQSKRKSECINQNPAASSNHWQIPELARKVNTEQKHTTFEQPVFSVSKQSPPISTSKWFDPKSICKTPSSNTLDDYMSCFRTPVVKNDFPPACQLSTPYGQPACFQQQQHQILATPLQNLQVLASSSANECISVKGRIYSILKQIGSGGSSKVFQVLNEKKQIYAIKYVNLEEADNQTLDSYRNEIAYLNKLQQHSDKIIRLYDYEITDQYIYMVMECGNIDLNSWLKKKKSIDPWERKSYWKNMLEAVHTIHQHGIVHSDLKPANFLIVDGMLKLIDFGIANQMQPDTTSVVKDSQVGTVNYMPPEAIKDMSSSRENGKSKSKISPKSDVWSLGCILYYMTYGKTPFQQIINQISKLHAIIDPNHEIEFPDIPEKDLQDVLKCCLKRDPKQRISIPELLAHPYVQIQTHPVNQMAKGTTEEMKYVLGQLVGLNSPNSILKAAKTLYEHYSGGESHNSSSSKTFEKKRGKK
As to the kind of experiment: TTK enzyme inhibition, ADP-Glo kinase assay. It counts as biochemical. Set-up: purchased Signalchem T20-10G. The settings on record: ATP 5 μM. Summed up:
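Recombinant human TTK (7.5 ng) reacted with 5 μM ATP and MBP substrate (0.2 μg) for 4 h at 25° C in Tris-HCl pH 7.4, MgCl2, BSA, DTT buffer, compound at 0.000017–1 μM. ADP formation by ADP-Glo luminescence; IC50 (nM) relative to solvent control.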
In general terms: ADP-Glo first removes unused ATP, then detects ADP through luciferase.

A further assay concerns the target LRRK2 (G2019S) (Homo sapiens, UniProt Q5S007, G2019S). As to the kind of experiment: LRRK2 G2019S enzyme inhibition, ADP-Glo kinase assay. Further details: purchased SignalChem L10-12GG. It counts as biochemical. Summed up:
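Purified human LRRK2 G2019S (16 ng) with 25 μM ATP and 0.2 μg substrate, 2 h at 25° C in 40 mM Tris-HCl pH 7.4, 20 mM MgCl2, 0.5 mg/ml BSA, 50 μM DTT; compound at 12 final concentrations from 50 μM downward. ADP-Glo luminescence versus solvent control gave IC50 (nM).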

A further assay has as its system MDA-MB-231 cell line. Kind of assay: MDA-MB-231 cancer cell proliferation inhibition (Cell Titer-Glo). Format: cell-based. The note with it: Homo sapiens, MDA-MB-231 triple-negative breast cancer cell line, 72 hours. Summed up:
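GI50 comes from CellTiter-Glo luminescence, read 10 min after reagent addition at RT, following 72 h compound treatment. Eleven concentrations were used (⅓ steps, highest 10 μM final) on 2000 cells/well. MDA-MB-231 and MDA-MB-468 were grown in DMEM, SHP-77 in RPMI.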
On the technique in general: In ATP-based viability assays light output follows the ATP content of the culture.

LRRK2 (G2019S), sequence (Q5S007 970-2527 G2019S limits assumed): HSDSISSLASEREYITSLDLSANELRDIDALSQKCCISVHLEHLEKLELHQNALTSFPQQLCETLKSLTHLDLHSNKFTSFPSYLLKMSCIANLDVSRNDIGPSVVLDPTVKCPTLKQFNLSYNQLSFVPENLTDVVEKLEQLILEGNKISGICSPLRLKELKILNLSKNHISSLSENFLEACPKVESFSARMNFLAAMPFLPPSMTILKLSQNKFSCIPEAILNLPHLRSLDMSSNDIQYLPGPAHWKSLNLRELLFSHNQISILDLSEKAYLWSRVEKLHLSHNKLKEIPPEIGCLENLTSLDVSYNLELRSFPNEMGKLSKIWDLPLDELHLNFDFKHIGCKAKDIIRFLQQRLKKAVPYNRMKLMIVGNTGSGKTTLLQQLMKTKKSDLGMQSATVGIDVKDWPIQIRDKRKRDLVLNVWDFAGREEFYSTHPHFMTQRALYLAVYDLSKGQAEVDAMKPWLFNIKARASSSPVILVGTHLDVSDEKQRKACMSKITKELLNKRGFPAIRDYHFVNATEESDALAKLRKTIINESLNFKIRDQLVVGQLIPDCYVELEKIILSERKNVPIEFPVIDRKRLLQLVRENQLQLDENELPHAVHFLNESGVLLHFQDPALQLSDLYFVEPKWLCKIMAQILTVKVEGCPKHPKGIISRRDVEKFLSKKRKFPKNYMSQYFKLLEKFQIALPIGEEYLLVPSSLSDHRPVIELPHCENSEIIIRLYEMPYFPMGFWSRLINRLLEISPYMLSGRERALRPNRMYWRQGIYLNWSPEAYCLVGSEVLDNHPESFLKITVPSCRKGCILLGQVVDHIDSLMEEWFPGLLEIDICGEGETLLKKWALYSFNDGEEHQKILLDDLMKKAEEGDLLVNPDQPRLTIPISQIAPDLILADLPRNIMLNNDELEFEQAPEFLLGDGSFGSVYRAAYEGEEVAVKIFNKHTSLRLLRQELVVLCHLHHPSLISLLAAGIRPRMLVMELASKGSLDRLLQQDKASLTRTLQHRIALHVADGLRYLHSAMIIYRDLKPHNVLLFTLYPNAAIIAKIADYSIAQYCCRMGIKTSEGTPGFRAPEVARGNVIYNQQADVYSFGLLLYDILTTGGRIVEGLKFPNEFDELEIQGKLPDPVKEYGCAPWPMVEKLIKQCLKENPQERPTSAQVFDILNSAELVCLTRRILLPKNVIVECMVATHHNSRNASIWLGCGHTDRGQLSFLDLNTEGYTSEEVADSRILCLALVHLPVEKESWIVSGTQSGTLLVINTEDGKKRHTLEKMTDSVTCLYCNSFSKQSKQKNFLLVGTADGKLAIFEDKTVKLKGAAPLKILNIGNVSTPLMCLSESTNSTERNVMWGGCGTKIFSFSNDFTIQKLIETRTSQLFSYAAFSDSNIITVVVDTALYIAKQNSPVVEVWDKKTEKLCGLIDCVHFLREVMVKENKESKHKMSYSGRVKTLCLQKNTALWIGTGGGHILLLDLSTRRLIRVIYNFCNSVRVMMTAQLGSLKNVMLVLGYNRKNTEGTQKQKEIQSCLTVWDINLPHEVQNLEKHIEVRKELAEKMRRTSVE

`CCNc1cc(Nc2ccc(C(=O)N3CCC(N4CCOCC4)CC3)c3c2OCC3)nc2[nH]cc(C(F)(F)F)c12` [Example 90, (7-((4-(ethylamino)-3-(trifluoromethyl)-1H-pyrrolo[2,3-b]pyridin-6-yl)amino)-2,3-dihydrobenzofuran-4-yl)(4-morpholinopiperidin-1-yl)methanone]: the IC50 on TTK and against LRRK2 (G2019S) was less than 100 nM throughout. Further, in the assay with MDA-MB-231 cell line, the GI50 lay in the range of 301 to 1000 nM.

For `COc1cc(S(=O)(=O)N2CCOCC2)ccc1Nc1cc(C2CC2)c2c(C(F)(F)F)c[nH]c2n1` [Example 222, 4-cyclopropyl-N-(2-methoxy-4-(morpholinosulfonyl)phenyl)-3-(trifluoromethyl)-1H-pyrrolo[2,3-b]pyridin-6-amine], the IC50 at TTK is less than 100 nM; at LRRK2 (G2019S) it was 301 to 1000 nM. The compound also came in with a GI50 in the assay on MDA-MB-231 cell line of 301 to 1000 nM.

Turning to `COCCNc1cc(Nc2ccc(C(=O)N3CCC(N4CCOCC4)CC3)c3c2OCC3)nc2[nH]cc(C(F)(F)F)c12` [Example 55, (7-((4-((2-methoxyethyl)amino)-3-(trifluoromethyl)-1H-pyrrolo[2,3-b]pyridin-6-yl)amino)-2,3-dihydrobenzofuran-4-yl)(4-morpholinopiperidin-1-yl)methanone], the IC50 is 101 to 300 nM against TTK and less than 100 nM against LRRK2 (G2019S). The compound also displayed a GI50 in the assay on MDA-MB-231 cell line of 301 to 1000 nM.

Turning to `COCCNc1cc(Nc2ccc(S(=O)(=O)N3CCC(N4CCOCC4)CC3)c3c2OCCO3)nc2[nH]cc(C(F)(F)F)c12` [Example 97, N^4-(2-methoxyethyl)-N^6-(8-((4-morpholonopiperidin-1-yl)sulfonyl)-2,3-dihydrobenzo[b] [1,4]dioxin-5-yl)-3-(trifluoromethyl)-1H-pyrrolo[2,3-b]pyridine-4,6-diamine], the IC50 is 101 to 300 nM at TTK and less than 100 nM against LRRK2 (G2019S). The GI50 in the assay with MDA-MB-231 cell line is 301 to 1000 nM.

As to `CNc1cc(Nc2ccc(P3(=O)CCN(C4CC4)CC3)cc2OC)nc2[nH]cc(C(F)(F)F)c12` [Example 205, 1-cyclopropyl-4-(3-methoxy-4-((4-(methylamino)-3-(trifluoromethyl)-1H-pyrrolo[2,3-b]pyridin-6-yl)amino)phenyl)-1,4-azaphosphinane 4-oxide], the IC50 was less than 100 nM against TTK and 101 to 300 nM at LRRK2 (G2019S). In addition, in the assay on MDA-MB-231 cell line, the concentration for 50% growth inhibition (GI50) was 301 to 1000 nM.

`N#Cc1c[nH]c2nc(Nc3ccc(C(=O)N4CCC(N5CCOCC5)CC4)c4c3OCCO4)cc(C3CC3)c12` [Example 226, 4-cyclopropyl-6-((8-(4-morpholinopiperidine-1-carbonyl)-2,3-dihydrobenzo[b] [1,4]dioxin-5-yl)amino)-1H-pyrrolo[2,3-b]pyridine-3-carbonitrile]: the IC50 against TTK and against LRRK2 (G2019S) was less than 100 nM each time. The GI50 with MDA-MB-231 cell line fell in the range of 301 to 1000 nM.

Consider `COc1cc(S(=O)(=O)N2CCOCC2)ccc1Nc1cc(C2CC2)c2c(C#N)c[nH]c2n1` [Example 227, 4-cyclopropyl-6-((2-methoxy-4-(morpholinosulfonyl)phenyl)amino)-1H-pyrrolo[2,3-b]pyridine-3-carbonitrile], for which the half-inhibitory concentration (IC50) on TTK was less than 100 nM; against LRRK2 (G2019S) it was 101 to 300 nM. The compound also had a GI50 with MDA-MB-231 cell line of 301 to 1000 nM.

Take `COc1cc(S(=O)(=O)N2CCC(N3CCOCC3)CC2)ccc1Nc1cc(C2CC2)c2c(C#N)c[nH]c2n1` [Example 228, 4-cyclopropyl-6-((2-methoxy-4-((4-morpholinopiperidin-1-yl)sulfonyl)phenyl)amino)-1H-pyrrolo[2,3-b]pyridine-3-carbonitrile]: the IC50 against TTK and against LRRK2 (G2019S) was less than 100 nM throughout. Moreover, in the assay on MDA-MB-231 cell line, the GI50 lay within 51 to 100 nM.

Take `CCNc1cc(Nc2ccc(C(=O)N3CCN(C4COC4)CC3)c3c2OCC3)nc2[nH]cc(C(F)(F)F)c12` [Example 248, (7-((4-(ethylamino)-3-(trifluoromethyl)-1H-pyrrolo[2,3-b]pyridin-6-yl)amino)-2,3-dihydrobenzofuran-4-yl)(4-(oxetan-3-yl)piperazin-1-yl)methanone]: the half-inhibitory concentration (IC50) against TTK and on LRRK2 (G2019S) was less than 100 nM in each case. This compound gave a GI50 in the assay with MDA-MB-231 cell line of 301 to 1000 nM.

What is called IC50 is the midpoint of a concentration-inhibition curve. As a reminder, the GI50 is the concentration at which growth is held to half of that of the control. Higher therefore signals lower sensitivity of the cells.
